This passage reports remaining activity and logd results from publication doi:10.1101/2024.08.19.608619, “Discovery of potent SARS-CoV-2 nsp3 macrodomain inhibitors uncovers lack of translation to cellular antiviral response” (bioRxiv, 2024).

For one series, the target named is CDK9/cyclin T1(h) (Homo sapiens, UniProt P50750). Briefly: biochemical. As to conditions: atp_concentration=45, read-out: % of control remaining. Further details: In vitro kinase panel profiling, per cent remaining kinase activity at 10 uM. The source says:
(§1) We derisk potential for off-target activity by profiling the compound in a CEREP panel, a standard secondary pharmacology assessment, as well as a kinase panel to derisk a potential hinge-binding motif in our leads, and a PARP panel to derisk activity against human […]. Reassuringly, the compounds are selective, with the only off-targets being moderate human CHRM2 and KOR receptors activity associated with ASAP-0011198.

In the next series the target is T1, CaMKI(h) (Homo sapiens, UniProt Q14012).
T1 construct: gene CAMK1
Briefly: biochemical. Details: In vitro kinase panel profiling, per cent remaining kinase activity at 10 uM. To be noted: atp_concentration=200, read-out: % of control remaining.
Excerpt: as §1

The target of another series is T2, p70S6K(h) (Homo sapiens, UniProt P23443).
T2 construct: gene RPS6KB1
Briefly: biochemical. Details: In vitro kinase panel profiling, per cent remaining kinase activity at 10 uM. To be noted: atp_concentration=15, read-out: % of control remaining.
Excerpt: as §1

Another series deals with T3, LOK(h) (Homo sapiens, UniProt O94804).
T3 construct: gene STK10
Briefly: biochemical. Details: In vitro kinase panel profiling, per cent remaining kinase activity at 10 uM. To be noted: atp_concentration=120, read-out: % of control remaining.
Excerpt: as §1

A further series deals with KDR(h) (Homo sapiens, UniProt P35968). Briefly: biochemical. Details: In vitro kinase panel profiling, per cent remaining kinase activity at 10 uM. To be noted: atp_concentration=90, read-out: % of control remaining.
Excerpt: as §1

In another series the target is EGFR(h) (Homo sapiens, UniProt P00533). Briefly: biochemical. Further details: In vitro kinase panel profiling, per cent remaining kinase activity at 10 uM. As to conditions: atp_concentration=10, read-out: % of control remaining.
Excerpt: as §1

A further series deals with T4, PDGFRβ(h) (Homo sapiens, UniProt P09619).
T4 construct: gene PDGFRB
Briefly: biochemical. Details: In vitro kinase panel profiling, per cent remaining kinase activity at 10 uM. As to conditions: atp_concentration=200, read-out: % of control remaining.
Excerpt: as §1

The target of another series is Plk3(h) (Homo sapiens, UniProt Q9H4B4). Nature of the series: biochemical. To be noted: atp_concentration=70, read-out: % of control remaining. Further details: In vitro kinase panel profiling, per cent remaining kinase activity at 10 uM.
Excerpt: as §1

The target of a further series is CDK2/cyclinA(h) (Homo sapiens, UniProt P24941). Nature of the series: biochemical. Details: In vitro kinase panel profiling, per cent remaining kinase activity at 10 uM. As to conditions: atp_concentration=45, read-out: % of control remaining.
Excerpt: as §1

For series [1], the target named is T5, PI3 Kinase (p110δ/p85α)(h) (Homo sapiens, UniProt O00329).
T5 construct: gene PIK3CD
Nature of the series: biochemical. Further details: In vitro kinase panel profiling, per cent remaining kinase activity at 10 uM. As to conditions: atp_concentration=200, read-out: % of control remaining.
Excerpt: as §1

The target of another series is JAK2(h) (Homo sapiens, UniProt O60674). Briefly: biochemical. Further details: In vitro kinase panel profiling, per cent remaining kinase activity at 10 uM. To be noted: atp_concentration=45, read-out: % of control remaining.
Excerpt: as §1

For the next series, the target named is ALK(h) (Homo sapiens, UniProt Q9UM73). Nature of the series: biochemical. Details: In vitro kinase panel profiling, per cent remaining kinase activity at 10 uM. To be noted: atp_concentration=200, read-out: % of control remaining.
Excerpt: as §1

For the next series, the target named is T6, CHK1(h) (Homo sapiens, UniProt O14757).
T6 construct: gene CHEK1
T6 sequence (O14757 1-476): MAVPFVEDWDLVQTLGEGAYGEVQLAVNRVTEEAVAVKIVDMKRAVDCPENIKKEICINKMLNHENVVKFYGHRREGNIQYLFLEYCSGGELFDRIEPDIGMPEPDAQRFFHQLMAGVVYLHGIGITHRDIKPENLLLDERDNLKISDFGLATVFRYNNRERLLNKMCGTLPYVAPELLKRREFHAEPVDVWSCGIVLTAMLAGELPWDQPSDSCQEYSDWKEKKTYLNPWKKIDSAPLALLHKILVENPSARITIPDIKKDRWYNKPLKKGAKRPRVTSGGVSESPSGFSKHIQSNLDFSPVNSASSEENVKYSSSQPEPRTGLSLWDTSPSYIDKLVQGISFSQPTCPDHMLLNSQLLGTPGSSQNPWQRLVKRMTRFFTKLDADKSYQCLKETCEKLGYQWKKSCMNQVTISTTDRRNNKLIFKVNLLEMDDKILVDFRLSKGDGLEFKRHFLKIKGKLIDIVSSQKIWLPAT
Briefly: biochemical. As to conditions: atp_concentration=90, read-out: % of control remaining. Details: In vitro kinase panel profiling, per cent remaining kinase activity at 10 uM.
Excerpt: as §1

Values joined by “and” are separate entries in the source; they are usually repeats but may differ in a detail not shown here. Equal values may be shown once. Read-outs that look alike come from different tables or passages of the source.

T5 sequence (O00329 whole entry): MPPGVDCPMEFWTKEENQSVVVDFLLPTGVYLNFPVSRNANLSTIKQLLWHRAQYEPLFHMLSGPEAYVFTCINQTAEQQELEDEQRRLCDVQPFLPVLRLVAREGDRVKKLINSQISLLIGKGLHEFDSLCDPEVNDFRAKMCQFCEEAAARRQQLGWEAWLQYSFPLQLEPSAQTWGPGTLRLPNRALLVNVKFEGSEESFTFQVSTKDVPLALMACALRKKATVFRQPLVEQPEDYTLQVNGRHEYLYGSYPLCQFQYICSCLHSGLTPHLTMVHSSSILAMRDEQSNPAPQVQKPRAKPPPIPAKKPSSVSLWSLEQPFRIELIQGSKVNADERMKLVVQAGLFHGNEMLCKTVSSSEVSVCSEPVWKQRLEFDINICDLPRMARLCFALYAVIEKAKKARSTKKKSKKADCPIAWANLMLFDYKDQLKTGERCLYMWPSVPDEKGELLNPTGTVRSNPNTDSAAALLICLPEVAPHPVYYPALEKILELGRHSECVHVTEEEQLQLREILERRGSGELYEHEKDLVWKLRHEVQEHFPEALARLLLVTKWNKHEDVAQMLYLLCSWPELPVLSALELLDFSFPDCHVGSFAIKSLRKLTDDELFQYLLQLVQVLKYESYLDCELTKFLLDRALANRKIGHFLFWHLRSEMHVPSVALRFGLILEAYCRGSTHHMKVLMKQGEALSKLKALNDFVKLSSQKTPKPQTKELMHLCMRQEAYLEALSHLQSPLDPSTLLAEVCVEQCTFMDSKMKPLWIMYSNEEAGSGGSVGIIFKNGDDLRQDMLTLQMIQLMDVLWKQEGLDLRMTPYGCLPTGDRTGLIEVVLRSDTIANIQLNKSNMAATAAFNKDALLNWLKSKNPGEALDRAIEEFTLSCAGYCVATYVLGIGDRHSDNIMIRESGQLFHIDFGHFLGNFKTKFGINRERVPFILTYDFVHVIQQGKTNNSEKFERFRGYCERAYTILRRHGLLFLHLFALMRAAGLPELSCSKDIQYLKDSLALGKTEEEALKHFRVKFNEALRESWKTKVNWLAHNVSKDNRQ
T5 sequence (P27986 whole entry partner): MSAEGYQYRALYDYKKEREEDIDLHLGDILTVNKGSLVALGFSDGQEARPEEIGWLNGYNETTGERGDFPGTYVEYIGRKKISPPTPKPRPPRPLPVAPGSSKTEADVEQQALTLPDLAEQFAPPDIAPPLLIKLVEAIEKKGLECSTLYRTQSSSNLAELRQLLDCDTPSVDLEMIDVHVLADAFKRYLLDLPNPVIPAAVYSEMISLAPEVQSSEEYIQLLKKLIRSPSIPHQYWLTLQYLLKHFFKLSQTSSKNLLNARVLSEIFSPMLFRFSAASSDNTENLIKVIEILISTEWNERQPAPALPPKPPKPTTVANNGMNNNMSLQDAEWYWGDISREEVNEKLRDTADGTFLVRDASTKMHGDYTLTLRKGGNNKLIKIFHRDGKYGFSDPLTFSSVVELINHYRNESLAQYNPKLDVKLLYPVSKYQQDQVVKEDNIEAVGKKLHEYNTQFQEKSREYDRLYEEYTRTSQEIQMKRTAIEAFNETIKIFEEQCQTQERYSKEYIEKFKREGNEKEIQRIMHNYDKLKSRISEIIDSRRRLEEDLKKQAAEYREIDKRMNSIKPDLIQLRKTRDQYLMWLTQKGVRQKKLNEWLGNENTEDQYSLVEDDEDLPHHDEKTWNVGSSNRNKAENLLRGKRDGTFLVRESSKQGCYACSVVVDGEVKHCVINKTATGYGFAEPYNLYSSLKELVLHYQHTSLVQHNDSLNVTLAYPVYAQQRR
Chain of ALK(h) (Q9UM73 whole entry): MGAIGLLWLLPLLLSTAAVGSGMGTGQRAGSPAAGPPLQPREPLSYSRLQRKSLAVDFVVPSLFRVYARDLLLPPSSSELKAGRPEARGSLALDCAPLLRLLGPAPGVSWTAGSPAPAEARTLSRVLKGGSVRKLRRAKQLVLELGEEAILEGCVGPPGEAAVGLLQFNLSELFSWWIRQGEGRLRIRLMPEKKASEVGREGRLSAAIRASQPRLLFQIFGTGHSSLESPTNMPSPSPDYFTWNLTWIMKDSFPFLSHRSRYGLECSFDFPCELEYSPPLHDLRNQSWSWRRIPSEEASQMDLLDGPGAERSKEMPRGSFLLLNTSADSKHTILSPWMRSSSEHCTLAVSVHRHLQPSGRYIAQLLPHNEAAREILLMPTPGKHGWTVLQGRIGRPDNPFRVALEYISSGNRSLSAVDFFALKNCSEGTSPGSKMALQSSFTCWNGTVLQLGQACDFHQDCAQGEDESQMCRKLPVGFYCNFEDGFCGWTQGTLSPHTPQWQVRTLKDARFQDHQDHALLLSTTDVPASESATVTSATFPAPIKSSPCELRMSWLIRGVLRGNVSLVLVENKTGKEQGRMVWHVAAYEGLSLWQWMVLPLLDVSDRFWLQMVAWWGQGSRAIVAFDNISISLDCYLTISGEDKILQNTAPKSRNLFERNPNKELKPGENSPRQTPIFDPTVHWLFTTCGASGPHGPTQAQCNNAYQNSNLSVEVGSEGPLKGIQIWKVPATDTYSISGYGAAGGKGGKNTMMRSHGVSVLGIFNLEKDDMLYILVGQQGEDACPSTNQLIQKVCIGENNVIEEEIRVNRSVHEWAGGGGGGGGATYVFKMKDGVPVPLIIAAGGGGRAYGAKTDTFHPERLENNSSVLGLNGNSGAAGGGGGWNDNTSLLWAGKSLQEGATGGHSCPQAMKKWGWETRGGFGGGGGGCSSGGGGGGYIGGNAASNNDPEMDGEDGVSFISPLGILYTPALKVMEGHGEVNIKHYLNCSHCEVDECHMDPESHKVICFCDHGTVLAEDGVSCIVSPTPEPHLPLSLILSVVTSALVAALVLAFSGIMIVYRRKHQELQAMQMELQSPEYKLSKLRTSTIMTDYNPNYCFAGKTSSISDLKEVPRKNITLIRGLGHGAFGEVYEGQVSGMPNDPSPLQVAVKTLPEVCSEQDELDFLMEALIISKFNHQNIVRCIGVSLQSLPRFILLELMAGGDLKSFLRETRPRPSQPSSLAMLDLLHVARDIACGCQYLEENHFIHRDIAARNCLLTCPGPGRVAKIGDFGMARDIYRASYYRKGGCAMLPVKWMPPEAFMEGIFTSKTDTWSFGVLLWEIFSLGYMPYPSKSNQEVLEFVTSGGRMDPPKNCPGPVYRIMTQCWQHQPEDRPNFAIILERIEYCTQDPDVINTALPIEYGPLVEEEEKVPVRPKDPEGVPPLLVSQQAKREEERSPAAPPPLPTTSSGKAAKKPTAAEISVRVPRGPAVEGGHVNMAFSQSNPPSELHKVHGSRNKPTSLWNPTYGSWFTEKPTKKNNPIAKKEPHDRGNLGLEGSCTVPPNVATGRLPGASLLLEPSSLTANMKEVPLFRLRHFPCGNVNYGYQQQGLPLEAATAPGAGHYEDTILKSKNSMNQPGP
T1 sequence (Q14012 whole entry): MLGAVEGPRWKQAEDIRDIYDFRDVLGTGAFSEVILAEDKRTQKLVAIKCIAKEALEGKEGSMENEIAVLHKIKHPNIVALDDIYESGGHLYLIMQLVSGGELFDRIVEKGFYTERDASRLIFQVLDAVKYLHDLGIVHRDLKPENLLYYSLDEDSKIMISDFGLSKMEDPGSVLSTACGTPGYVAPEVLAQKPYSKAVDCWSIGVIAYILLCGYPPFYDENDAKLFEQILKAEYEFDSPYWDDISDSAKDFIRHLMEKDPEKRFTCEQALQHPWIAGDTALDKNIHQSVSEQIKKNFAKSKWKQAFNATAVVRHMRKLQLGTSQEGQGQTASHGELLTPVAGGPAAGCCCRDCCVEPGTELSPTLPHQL
Chain of Plk3(h) (Q9H4B4 whole entry): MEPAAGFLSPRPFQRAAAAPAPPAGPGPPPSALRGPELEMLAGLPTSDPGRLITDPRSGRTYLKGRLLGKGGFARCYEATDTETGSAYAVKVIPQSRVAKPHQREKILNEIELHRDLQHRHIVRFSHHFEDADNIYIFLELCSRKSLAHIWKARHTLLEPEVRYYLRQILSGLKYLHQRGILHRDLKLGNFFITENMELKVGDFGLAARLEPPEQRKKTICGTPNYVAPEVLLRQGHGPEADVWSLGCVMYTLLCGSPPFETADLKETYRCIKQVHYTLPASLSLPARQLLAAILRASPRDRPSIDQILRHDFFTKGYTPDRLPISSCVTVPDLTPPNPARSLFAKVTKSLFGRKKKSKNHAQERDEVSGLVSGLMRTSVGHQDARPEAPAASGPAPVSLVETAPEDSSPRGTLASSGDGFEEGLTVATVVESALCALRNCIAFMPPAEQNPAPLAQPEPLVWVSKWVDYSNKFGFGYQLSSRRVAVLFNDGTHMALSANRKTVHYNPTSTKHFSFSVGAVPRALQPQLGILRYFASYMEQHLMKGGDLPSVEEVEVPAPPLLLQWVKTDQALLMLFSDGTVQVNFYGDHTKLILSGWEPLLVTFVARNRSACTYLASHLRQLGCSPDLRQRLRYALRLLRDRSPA
T2 sequence (P23443 whole entry): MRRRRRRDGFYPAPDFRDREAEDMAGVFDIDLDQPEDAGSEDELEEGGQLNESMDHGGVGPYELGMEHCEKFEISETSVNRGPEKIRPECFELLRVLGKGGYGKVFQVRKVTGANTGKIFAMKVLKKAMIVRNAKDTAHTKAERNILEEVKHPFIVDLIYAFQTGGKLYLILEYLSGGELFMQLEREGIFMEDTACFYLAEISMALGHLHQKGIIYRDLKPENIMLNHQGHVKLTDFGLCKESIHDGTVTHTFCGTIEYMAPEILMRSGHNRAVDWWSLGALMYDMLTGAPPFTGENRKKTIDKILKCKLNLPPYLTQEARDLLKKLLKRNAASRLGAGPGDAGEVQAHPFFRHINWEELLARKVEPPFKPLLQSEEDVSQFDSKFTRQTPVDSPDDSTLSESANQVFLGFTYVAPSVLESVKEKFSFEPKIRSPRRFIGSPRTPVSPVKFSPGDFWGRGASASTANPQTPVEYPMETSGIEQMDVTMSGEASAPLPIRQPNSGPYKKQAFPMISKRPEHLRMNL

Regarding `CC(C)[C@@H](Nc1ncnc2[nH]c(-c3cnn(C)c3C#N)cc12)c1ccc2c(n1)OCCO2` [ASAP-0010716], the remaining activity at 10 µM on CDK9/cyclin T1(h) (batch_name=ASAP-0010716-002) turned out to be 84%; on CaMKI(h) (batch_name=ASAP-0010716-002), 95%; at p70S6K(h) (batch_name=ASAP-0010716-002) it was 106%; on LOK(h) (batch_name=ASAP-0010716-002) it was 106%; at KDR(h) (batch_name=ASAP-0010716-002), 86%; on EGFR(h) (batch_name=ASAP-0010716-002) it was 77%. The remaining activity at 10 µM at PDGFRβ(h) (batch_name=ASAP-0010716-002) amounted to 93%; on Plk3(h) (batch_name=ASAP-0010716-002) it was 89%; on CDK2/cyclinA(h) (batch_name=ASAP-0010716-002), 104%; in series [1] (batch_name=ASAP-0010716-002), 61%; on JAK2(h) (batch_name=ASAP-0010716-002), 123%; at ALK(h) (batch_name=ASAP-0010716-002) it was 106%. Moreover, the remaining activity at 10 µM at CHK1(h) (batch_name=ASAP-0010716-002) came to 120%. This compound yielded a logd in the series “LogD” (pH 7.4, In vitro LogD) of 3.9.
Turning to `Cn1ncc(-c2cc3c(N[C@@H](c4ccc5c(n4)OCCO5)C(C)(C)C)ncnc3[nH]2)c1C#N` [ASAP-0011221], the remaining activity at 10 µM at CDK9/cyclin T1(h) (batch_name=ASAP-0011221-002) is 130%; on CaMKI(h) (batch_name=ASAP-0011221-002), 87%; on p70S6K(h) (batch_name=ASAP-0011221-002), 108%; at LOK(h) (batch_name=ASAP-0011221-002), 122%; at KDR(h) (batch_name=ASAP-0011221-002) it was 83%; on EGFR(h) (batch_name=ASAP-0011221-002) it was 99%. The remaining activity at 10 µM on PDGFRβ(h) (batch_name=ASAP-0011221-002) came out at 100%; at Plk3(h) (batch_name=ASAP-0011221-002), 77%; at CDK2/cyclinA(h) (batch_name=ASAP-0011221-002), 114%; in series [1] (batch_name=ASAP-0011221-002) it was 73%; at JAK2(h) (batch_name=ASAP-0011221-002), 140%; at ALK(h) (batch_name=ASAP-0011221-002) it was 117%. At CHK1(h) (batch_name=ASAP-0011221-002), the remaining activity at 10 µM is 125%. This compound returned a logd in the series “LogD” (pH 7.4, In vitro LogD) of 3.3.
With `CC(C)C(Nc1ncnc2[nH]c(C(=O)NC3CCN(C)C3)cc12)c1ccc2c(c1)S(=O)(=O)CCC2` (centres unmarked) [ASAP-0011198], the remaining activity at 10 µM at CDK9/cyclin T1(h) (batch_name=ASAP-0011198-002) turned out to be 108%; at CaMKI(h) (batch_name=ASAP-0011198-002) it was 100%; on p70S6K(h) (batch_name=ASAP-0011198-002), 104%; at LOK(h) (batch_name=ASAP-0011198-002), 99%; on KDR(h) (batch_name=ASAP-0011198-002), 96%; on EGFR(h) (batch_name=ASAP-0011198-002) it was 102%. Moreover, the remaining activity at 10 µM on PDGFRβ(h) (batch_name=ASAP-0011198-002) came out at 83%; at Plk3(h) (batch_name=ASAP-0011198-002), 98%; on CDK2/cyclinA(h) (batch_name=ASAP-0011198-002), 117%; in [1] (batch_name=ASAP-0011198-002), 99%; on JAK2(h) (batch_name=ASAP-0011198-002), 106%; on ALK(h) (batch_name=ASAP-0011198-002), 106%. Moreover, the remaining activity at 10 µM at CHK1(h) (batch_name=ASAP-0011198-002) is 118%. For the same compound, the logd in the series “LogD” and in “LogD” (pH 7.4) was 1.6 throughout.
In the case of `CC(C)[C@H](Nc1ncnc2[nH]ccc12)c1ccc2c(c1)S(=O)(=O)CCC2` [ASAP-0008674], the remaining activity at 10 µM turned out to be 112% at CDK9/cyclin T1(h) (batch_name=ASAP-0008674-002); 92% at CaMKI(h) (batch_name=ASAP-0008674-002); 103% on p70S6K(h) (batch_name=ASAP-0008674-002); 102% on LOK(h) (batch_name=ASAP-0008674-002); 86% at KDR(h) (batch_name=ASAP-0008674-002); 95% on EGFR(h) (batch_name=ASAP-0008674-002). In addition, the remaining activity at 10 µM on PDGFRβ(h) (batch_name=ASAP-0008674-002) came to 89%; at Plk3(h) (batch_name=ASAP-0008674-002), 112%; at CDK2/cyclinA(h) (batch_name=ASAP-0008674-002), 102%; in [1] (batch_name=ASAP-0008674-002), 99%; at JAK2(h) (batch_name=ASAP-0008674-002) it was 99%; on ALK(h) (batch_name=ASAP-0008674-002), 100%. For the same compound, at CHK1(h) (batch_name=ASAP-0008674-002), the remaining activity at 10 µM was found to be 110%. Further, in “LogD” (pH 7.4, In vitro LogD), the logd turned out to be 2.7.
For the compound `CC(C)[C@@H](Nc1ncnc2[nH]c(-c3cnn(C)c3C#N)cc12)c1ccc2c(n1)OCCO2` [ASAP-0008418], the remaining activity at 10 µM came to 45% on CDK9/cyclin T1(h) (batch_name=ASAP-0008418-001); 104% at CaMKI(h) (batch_name=ASAP-0008418-001); 82% on p70S6K(h) (batch_name=ASAP-0008418-001); 47% on LOK(h) (batch_name=ASAP-0008418-001); 80% at KDR(h) (batch_name=ASAP-0008418-001); 81% on EGFR(h) (batch_name=ASAP-0008418-001). The remaining activity at 10 µM amounted to 108% at PDGFRβ(h) (batch_name=ASAP-0008418-001); 90% on Plk3(h) (batch_name=ASAP-0008418-001); 95% on CDK2/cyclinA(h) (batch_name=ASAP-0008418-001); 55% in series [1] (batch_name=ASAP-0008418-001); 101% at JAK2(h) (batch_name=ASAP-0008418-001); 103% at ALK(h) (batch_name=ASAP-0008418-001). The remaining activity at 10 µM on CHK1(h) (batch_name=ASAP-0008418-001) is 108%. Also, the logd in “LogD” (pH 7.4, In vitro LogD) was 3.4 and 3.6.
